Data from patent publication US20240124483A1, “Methods for the Treatment of Fibrotic Disease” (SHY Therapeutics, LLC, priority 2021, published 2024).
Read-outs that look alike come from different tables or passages of the source.

Key:
Smad2/3 phosphorylation = test: Phospho-Smad2/3 Inhibition Assay in Panc-1 (western blot); format: cell-based; settings: Homo sapiens; 10 μM, 3 hours; PANC-1 stimulated with 10 ng/ml TGF-b1 for 1 hour; read-out: % inh of Smad2/3 phosphorylation in PANC-1
Procedure: (§1) Cell lines: Human tumor-derived pancreatic cancer cell line Panc-1 and mouse muscle myoblast C2C12 were purchased from American Type Culture Collection and grown in complete DMEM-High Glucose, supplemented with penicillin (100 U/mL), streptomycin (100 μg/mL), and 10% heat-inactivated FBS at 37° C. in a humidified incubator with 5% CO2.
(§2) Method: Cells were plated at 350000 cells/well density in a 12-well plate, allowed 3 hours to adhere to the plate, then starved in the appropriate medium in the presence of 0.5% FBS overnight. The small molecules to be tested were added to the cells in the final concentration of 10 μM in the presence of 0.3% DMSO for 3 hours incubation at 37° C. For IC50 value determination, serial dilutions of compounds were added to cells under the same conditions. Next, Panc-1 cells were stimulated with 10 ng/ml TGF-b1 for 1 hour, and C2C12 cells were stimulated with 10 ng/ml TGF-b1 for 20 minutes (recombinant human TGF-b1, R&D Systems). After stimulation cells were lysed with lysis buffer containing 1% Triton X-100, EDTA, and Halt™ Protease & Phosphatase Inhibitor Cocktail (Thermo Scientific). Protein concentration was assessed by BCA protein assay (Thermo Scientific). Phosphorylation level of Smad2/Smad3 was determined by western blot.
(§3) Western blot protocol: Equal amounts of protein (15-50 μg) were separated by SDS-PAGE and transferred to nitrocellulose membranes (Invitrogen by Thermo Fisher Scientific). The membrane was stained with Ponceau S Stain (Boston BioProducts) to verify uniform protein loading. Membranes were blocked with 10% milk and phosphorylation levels of Smad2/Smad3 were assessed by incubating overnight at 4° C. with the following antibodies: Phospho-Smad2 (Ser465/467) and Phosph-Smad3 (Ser423/425), both from Cell Signaling Technology. Then the membranes were incubated with HRP-conjugated secondary antibody (Jackson Immunoresearch, West Grove, PA). Bands were incubated in Amersham ECL Prime Western Blotting Detection Reagent (GE Healthcare) and visualized using the ChemiDoc MP imaging system (Bio-Rad).

MiaPaca2 = MiaPaca2 proliferation; format: cell-based; settings: Homo sapiens, MIA PaCa-2; for inhibition at 10 µM: read-out: % inh of proliferation in MiaPaca2
Rac-1 = Rac-1 (Homo sapiens (Human), UniProt P63000); test: Ras GTP Binding Domain Inhibition Assay, Rac-1; settings: without SOS, read-out: Rac-1: % inh.
Procedure: (§4) A Ras Superfamily Activity Assay (as disclosed in International Application No. PCT/US2018/038613, filed Jun. 20, 2018, which is incorporated by reference in its entirety) was used as a specific assay to evaluate compounds against the following for the following Ras Superfamily proteins: KRas wild type, KRas Q61H mutant, KRas G12C mutant, KRas G12D mutant, Rac-1, and Rho-A.
(§5) Buffer-I: • 25 mM Tris-HCl, pH 7.4 • 27 mM KCl • 137 mM NaCl • 1 mM MgCl2 • 1 mM DTT
(§6) Buffer-II: • 50 mM Tris-HCl, pH 7.0 • 1 mM MgCl2 • 1 mM DTT
(§7) The small GTPases proteins: KRas wild type. KRas Q61H mutant, KRas G12C mutant, KRas G12D mutants, Rac-1, and Rho-A were expressed as His-tagged proteins. In addition, the Guanosine nucleotide Exchange Factor (GEF) Sos protein (residues 556-1049) was expressed as a His-tagged protein. In cells, the guanine nucleotide exchange factor Sos protein promotes activation of Ras proteins by stimulating an exchange of GDP for GTP. The inclusion of Sos to the Ras GTP binding domain inhibition assay may be considered as an alternative representation of physiological cellular conditions for evaluating the inhibitory activity of some of the tested small molecules.
(§8) For the assay, all purified small GTPases proteins were diluted in Buffer-I or Buffer-II to a final concentration of 10-30 μg/mL. 200 μL of each diluted protein was added to a nickel-coated 96-well plate and incubated overnight at 4° C. Then the protein solution was discarded and 200 μL of Buffer-I or Buffer-II was added to each well in the presence of 1% DMSO. Compounds to be tested were added to the protein-coated wells at final concentration of 20 μM, and incubated for 3 hours at room temperature with and without 10-30 μg/mL of Sos added to the final hour of the incubation. When performing IC50 measurements a serial dilution of all tested concentrations was added. Then Cy3-GTP or Cy5-GTP was added to each well to a final concentration of 100 nM. The labeled GTP was incubated for 45 minutes at room temperature. Following GTP incubation, wells were washed 3× in Buffer-I or Buffer-II and 200 μL of Buffer-I or Buffer-II was added to each well. Following washes, the amount of bound labeled-GTP was measured using a SpectraMax M3 (Molecular Devices).

MAPK p38 = MAPK p38 Activation Assay in Panc-1 (western blot); format: cell-based, Human; design: key: Y = yes; N = No; settings: at 10 μM
Procedure: as §1
as §2, with “MAPK p38” for “Smad2/Smad3”
as §3, with “antibody: Phospho-p38 MAPK (Thr180/Tyr182),” for “antibodies: Phospho-Smad2 (Ser465/467) and Phosph-Smad3 (Ser423/425), both”

KRas Q61H mutant = KRas Q61H mutant (Homo sapiens (Human), UniProt P01116, Q61H); test: Ras GTP Binding Domain Inhibition Assay, KRas Q61H mutant; settings: 20 μM
Procedure: as §4, §5, §6, §7, §8

[1] = + SOS, read-out: KRas Q61H mutant + SOS: % inh.
[2] = without SOS, read-out: KRas Q61H mutant: % inh.

Chain of KRas Q61H mutant (P01116 other isoform, or with tags, fused parts or gaps Q61H): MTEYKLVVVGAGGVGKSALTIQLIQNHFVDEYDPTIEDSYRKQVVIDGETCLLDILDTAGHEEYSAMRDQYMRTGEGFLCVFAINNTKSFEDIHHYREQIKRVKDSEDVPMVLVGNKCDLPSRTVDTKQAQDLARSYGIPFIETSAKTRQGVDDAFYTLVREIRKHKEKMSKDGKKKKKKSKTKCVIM

SMILES | IC50 (MiaPaca2) | inhibition at 20 µM (Rac-1) | inhibition at 20 µM (KRas Q61H mutant; [1]) | inhibition at 20 µM (KRas Q61H mutant; [2]) | inhibition at 10 µM (Smad2/3 phosphorylation) | inhibition at 10 µM (MiaPaca2) | Activation of MAPK p38 in PANC-1 (MAPK p38)
COCCn1ccc(-c2sc3nc(-c4nccn4C)nc(NC[C@H]4CC[C@H]4COC)c3c2C)n1 (racemic) [Compound 38, rac-6-(1-(2-Methoxyethyl)-1H-pyrazol-3-yl)-N-(((1S,2R)-2-(methoxymethyl)cyclobutyl)methyl)-5-methyl-2-(1-methyl-1H-imidazol-2-yl)thieno[2,3-d]pyrimidin-4-amine] | 5 to 10 µM | 1 to 25% | 76 to 100% | 46 to 75% | 46 to 75% | 76 to 100% | Y
COc1cc(-c2sc3nc(-c4nccn4C)nc(N[C@@H]4CC[C@H](OC)C4)c3c2-c2ccccc2)ccn1 (racemic) [Compound 44, rac-N-((1R,3S)-3-Methoxycyclopentyl)-6-(2-methoxypyridin-4-yl)-2-(1-methyl-1H-imidazol-2-yl)-5-phenylthieno[2,3-d]pyrimidin-4-amine] | 5 to 10 µM | 0% | 76 to 100% | 26 to 45% | 76 to 100% | 76 to 100% | N
CO[C@H]1C[C@H](CNc2nc(-c3nccn3C)nc3sc(-c4ccn(C(C)C)n4)c(C)c23)C1 [Compound 16, 6-(1-Isopropyl-1H-pyrazol-3-yl)-N-(((1r,3r)-3-methoxycyclobutyl)methyl)-5-methyl-2-(1-methyl-1H-imidazol-2-yl)thieno[2,3-d]pyrimidin-4-amine] | < 1 µM | 26 to 45% | 46 to 75% | 46 to 75% | 1 to 25% | 76 to 100% | Y
COc1cccc(Nc2nc(-c3nccn3C)nc3sc(-c4ccn(C(C)C)n4)c(C)c23)c1 [Compound 17, 6-(1-Isopropyl-1H-pyrazol-3-yl)-N-(3-methoxyphenyl)-5-methyl-2-(1-methyl-1H-imidazol-2-yl)thieno[2,3-d]pyrimidin-4-amine] | 5 to 10 µM | 26 to 45% | 46 to 75% | 26 to 45% | 46 to 75% | 76 to 100% | Y
COc1cccc(Nc2nc(-c3nccn3C)nc3sc(-c4ccn(C(C)C)n4)c(C)c23)n1 [Compound 18, 6-(1-Isopropyl-1H-pyrazol-3-yl)-N-(6-methoxypyridin-2-yl)-5-methyl-2-(1-methyl-1H-imidazol-2-yl)thieno[2,3-d]pyrimidin-4-amine] | < 1 µM | 46 to 75% | 46 to 75% | 46 to 75% | 46 to 75% | 76 to 100% | Y

Now from value to molecule, other results behind:

IC50 (MiaPaca2) | inhibition at 20 µM (Rac-1) | inhibition at 20 µM (KRas Q61H mutant; [1]) | inhibition at 20 µM (KRas Q61H mutant; [2]) | SMILES | inhibition at 10 µM (Smad2/3 phosphorylation) | inhibition at 10 µM (MiaPaca2) | Activation of MAPK p38 in PANC-1 (MAPK p38)
5 to 10 µM | 26 to 45% | 76 to 100% | 76 to 100% | COCCn1ccc(-c2sc3nc(-c4nccn4C)nc(N[C@@H]4CC[C@H](OC)C4)c3c2C)n1 (racemic) [Compound 39, rac-N-((1R,3S)-3-Methoxycyclopentyl)-6-(1-(2-methoxyethyl)-1H-pyrazol-3-yl)-5-methyl-2-(1-methyl-1H-imidazol-2-yl)thieno[2,3-d]pyrimidin-4-amine] | 0% | 76 to 100% | Y
1 to 4.99 µM | 1 to 25% | 76 to 100% | 26 to 45% | COc1cccc(-c2sc3nc(-c4nccn4C)nc(N[C@@H]4CC[C@@H](OC)C4)c3c2-c2ccccc2)c1F (racemic) [Compound 41, 6-(2-Fluoro-3-methoxyphenyl)-N-((1R,3R)-3-methoxycyclopentyl)-2-(1-methyl-1H-imidazol-2-yl)-5-phenylthieno[2,3-d]pyrimidin-4-amine] | 76 to 100% | 76 to 100% | Y
5 to 10 µM | 1 to 25% | 76 to 100% | 26 to 45% | COc1cccc(-c2sc3nc(-c4nccn4C)nc(N[C@@H]4CC[C@@H](OC)C4)c3c2C)c1F (racemic) [Compound 43, rac-6-(2-Fluoro-3-methoxyphenyl)-N-((1R,3R)-3-methoxycyclopentyl)-5-methyl-2-(1-methyl-1H-imidazol-2-yl)thieno[2,3-d]pyrimidin-4-amine] | 76 to 100% | 46 to 75% | Y
< 1 µM | 46 to 75% | 76 to 100% | 46 to 75% | COc1cc(-c2sc3nc(-c4nccn4C)nc(N[C@@H]4CC[C@@H](OC)C4)c3c2-c2ccccc2)ccn1 (racemic) [Compound 47, N-((1R,3R)-3-Methoxycyclopentyl)-6-(2-methoxypyridin-4-yl)-2-(1-methyl-1H-imidazol-2-yl)-5-phenylthieno[2,3-d]pyrimidin-4-amine] | 76 to 100% | 76 to 100% | N
